Laboratory results reported in patent US7407934B2, “Methods for regulating postprandial blood glucose” (Amylin Pharmaceuticals, Inc., priority 1993, dated 2008).
Blank lines part the entries; values can stand above or below the compound they belong to.

How the values were obtained:
[1] = Oral glucose tolerance test in dogs during amylin infusion (Example 1); assay type: in vivo, dog
Experimental: Mongrel dogs (9 males, 12-17 kg wt. range) were used for this study. All animals were fasted overnight prior to each study. Each animal served as its own control for all protocols. Animals were equilibrated for 30-60 minutes prior to the start of each protocol.
25% glucose (1 gm/kg) was administered by mouth at t=0 minutes. […] Samples for insulin, glucose and lactate were obtained at 15 minutes intervals from t=−45 to t=180 minutes.

[2] = Uptake of labelled oral glucose load in corpulent LA/N rats (Example 6); assay type: in vivo, rat
Experimental: Uptake of an ingested glucose load was measured in 11 conscious 24-hr fasted corpulent (500-600 g) LA/N rats on 2 occasions, 14 days apart.

[3] = Plasma glucose after Sustacal meal or IV glucose load during AC-0137 infusion (Example 3); assay type: in vivo, human
Source text: Twenty-seven subjects with insulin-dependent diabetes mellitus were allocated into a combination of two dose level groups and two types of tolerance tests.
Subjects remained in the clinic for three days. On the first day of confinement, the subjects were acclimatized to the clinic. […] In addition, subjects received either a Sustacal® meal or iv glucose tolerance test, as determined by the group assignment.
During the first day, the subject's usual insulin and caloric intake was stabilized and each subject then followed this insulin and dietary regimen throughout confinement in the clinic.
at approximately, 0700 h (T=0), the continuous infusion of study medication was initiated. At T=30 minutes, the subjects administered their usual AM dose of insulin. […] The type of tolerance test was determined according to the randomization schedule. […] Study drug administration was discontinued at t=300 minutes.
On the morning of the third day, iv lines were again placed in a similar manner as on Day 2. Subjects administered their usual pre-breakfast dose of insulin as on Day 2. […] An identical standardized Sustacal® meal tolerance or iv glucose load as they received on Day 2 was again administered. At the end of the sampling period the iv lines were withdrawn.

[4] = parameters: species or system human; conditions: in vivo, iv
Source text: (§1) Subjects in each dose group underwent a two period crossover to examine intravenous (IV) bolus versus IV infusion of drug. Each period consisted of a three-day confinement to the study unit. On each occasion, the initial day of confinement was allowed for acclimatization to the study unit. The second and third days constituted an imbedded crossover of placebo versus active medication. […] An imbedded cross-over design for the administration of drug and placebo on Days 2 and 3 of this admission was employed in a manner similar to that used during the first admission. The six subjects assigned to the placebo group received placebo on each of the study days. On study days, intravenous catheters were inserted at least 30 minutes prior to the start of the study. 15 minutes before dosing, the subjects took their usual insulin dose via subcutaneous injection. […] The infusion rate was designed to administer the assigned amount of drug over the two hour period. Thirty minutes later, the subjects ingested their normal breakfasts. Blood samples were taken between −30 and 300 minutes for the measurement of plasma.

[5] = 14-day study, Sustacal meal tolerance test glucose (Example 4); assay type: in vivo, human; conditions: 14 days
Experimental: 72 subjects with insulin-dependent diabetes mellitus participated in a 14-day clinical trial. Each subject was randomly assigned to one of four treatment groups, receiving placebo, 30, 100 or 300 μg tripro-amylin by subcutaneous injection three times a day for 14 days. The subjects also remained on their usual insulin regimen throughout the study. On days 1 (baseline), 7 and 14, standardized meal tolerance tests were performed.
For the standardized meal tolerance tests, subjects were given a Sustacal® liquid meal (360 ml containing 360 calories) at 0800 h. Subjects abstained from food or drink (except for water) from 2200 h the night before. […] For a baseline test, on day 1, tripro-amylin (or placebo) was not administered until after completion of the test. On day 7 and 14, tripro-amylin (or placebo) was administered in a separate injection at the same time as the usual morning insulin dose. Samples for determination of serum glucose levels were drawn at −30, 0, 30, 60, 120 and 180 minutes relative to the start of the challenge. Time zero was considered to be the time when the subject began to drink the Sustacal® meal.

[6] = Post-prandial plasma glucose after IV bolus or IV infusion in insulin-dependent diabetic subjects (Example 2); assay type: in vivo, human
Source text: as §1

Compound: acetyl-^11,18Arg, ^30Arg, ^32Tyr-^9-32calcitonin (salmon) [AC-0253]
Changes in plasma glucose, antagonist alone ([1]; AC-0253 alone): no effect
Reversal of amylin-induced changes in plasma glucose ([1]; AC-0253 up to 1500 pmol/kg/min with amylin 50 pmol/kg/min): does not completely reverse the effects of amylin
Effects on plasma lactate ([1]; oral glucose load): unremarkable

Compound: ac-^10N^32Y8-32-salmon calcitonin [AC-0187]
Acceleration of appearance of glucose-derived tritium in plasma ([2]; 3 μg s.c. 3 min before gavage, 15 minutes post-gavage (P<0.02)): 48%
Acceleration of appearance of glucose-derived tritium in plasma ([2]; 3 μg s.c., 30 minutes post-gavage (P<0.001)): 45%
Plasma glucose ([2]; 15 minutes after gavage with 0.5 g glucose, rise from 5.89±0.17): 8.33 ± 0.28 mM
Plasma glucose ([2]; 60 minutes after glucose gavage): 6.89 ± 0.28 mM

Disappearance of drug from plasma compartment [4]: apparent first-order kinetics
Compound: CC[C@H](C)[C@H](NC(=O)[C@@H]1CCCN1C(=O)CNC(=O)[C@H](Cc1ccccc1)NC(=O)[C@H](CC(N)=O)NC(=O)[C@H](CC(N)=O)NC(=O)[C@H](CO)NC(=O)[C@H](CO)NC(=O)[C@H](Cc1c[nH]cn1)NC(=O)[C@@H](NC(=O)[C@H](CC(C)C)NC(=O)[C@H](Cc1ccccc1)NC(=O)[C@H](CC(N)=O)NC(=O)[C@H](C)NC(=O)[C@H](CC(C)C)NC(=O)[C@H](CCCNC(=N)N)NC(=O)[C@H](CCC(N)=O)NC(=O)[C@@H](NC(=O)[C@H](C)NC(=O)[C@@H]1CSSC[C@H](NC(=O)[C@@H](N)CCCCN)C(=O)N[C@@H](CC(N)=O)C(=O)N[C@@H]([C@@H](C)O)C(=O)N[C@@H](C)C(=O)N[C@@H]([C@@H](C)O)C(=O)N1)[C@@H](C)O)C(C)C)C(=O)N[C@@H](CC(C)C)C(=O)N1CCC[C@H]1C(=O)N1CCC[C@H]1C(=O)N[C@H](C(=O)N[C@@H](CC(N)=O)C(=O)N[C@H](C(=O)NCC(=O)N[C@@H](CO)C(=O)N[C@@H](CC(N)=O)C(=O)N[C@H](C(=O)N[C@@H](Cc1ccc(O)cc1)C(N)=O)[C@@H](C)O)C(C)C)[C@@H](C)O [^25,28,29Pro-h-Amylin]
Plasma glucose levels vs placebo ([3]; IV glucose load 300 mg/kg, 50 μg/hr IV infusion): not significantly different from placebo-treated subjects
Plasma glucose levels vs placebo ([3]; Sustacal meal, 25 μg/hr or 50 μg/hr IV infusion): reduced
Post-meal glucose: Mean of changes in AUC ([5]; 30 micrograms s.c. 3 times daily): −6,645 mb/dl * min.
Post-meal glucose: Mean of changes in AUC ([5]; 100 micrograms s.c. 3 times daily): −6,412 mb/dl * min.
Post-meal glucose: Mean of changes in AUC ([5]; 300 micrograms s.c. 3 times daily): −7,316 mb/dl * min.
Post-prandial glucose levels ([6]; IV bolus 30 μg): no apparent change in glucose levels
Post-prandial rise in glucose ([6]; IV bolus 100 μg): clearly delayed and less pronounced
Post-prandial rise in glucose ([6]; IV bolus 300 μg): essentially eliminated
Post-prandial rise in glucose ([6]; IV infusion 15 μg/hr): highly suggestive of an effect
Post-prandial rise in glucose ([6]; IV infusion 50 and 150 μg/hr): striking
Post-prandial hyperglycemia ([6]; continuous 2-hour IV infusion, 15-150 μg/hr): dose-dependent reduction in post-prandial hyperglycemia
